Assay results: US6730697B2, “Dihydrothiaphenanthrenecarbonylguanidines: composition, process of making, and use as medicament or diagnostic aid” (Aventis Pharma Deutschland GmbH, priority 2002, dated 2004)
Counter-ions that a name gives are not always drawn.

Target: T1, human NHE-1 (Homo sapiens, UniProt P19634)
T1 construct: expressed in transfected cells; host or cells: LAP-1 cells (parental line without endogenous NHE activity, from Prof. Pouysségur, Nice), G418-selected transfectants
Test: FLIPR assay for NHE-1 inhibition by recovery of pHi in transfected cell lines
Assay type: cell-based
Conditions: transfected LAP-1 cell line expressing human NHE-1, BCECF fluorescence
Description: The NHE-1 inhibition IC50 [nM] was determined as follows: FLIPR Assay for Determining NHE-1 Inhibitors by Measurement of the Recovery in pHi in Transfected Cell Lines Which Express Human NHE-1 The assay is carried out in an FLIPR (fluorometric imaging plate reader) with black-walled 96-well microtiter plates with clear bases. […] [The growth medium for the transfected cells (Iscove +10% fetal calf serum) additionally contains G418 as selection antibiotic in order to ensure the presence of the transfected sequences.] The actual assay starts with the removal of the growth medium and addition of 100 μl of loading buffer per well (5 μM BCECF-AM [2′, 7′-bis(carboxyethyl)-5-(and-6)-carboxyfluorescein, acetoxymethyl ester] in 20 mM NH4Cl, 115 mM choline chloride, 1 mM MgCl2, 1 mM CaCl2, 5 mM KCl, 20 mM HEPES, 5 mM glucose; pH 7.4 [adjusted with KOH]). The cells are then incubated at 37° C. for 20 minutes. This incubation leads to loading of the cells with the fluorescent dye whose fluorescence intensity depends on pHi, and with NH4Cl which makes the cells slightly alkaline. [The nonfluorescent dye precursor BCECF-AM is, as ester, membrane-permeable. The actual dye BCECF is not membrane-permeable but is liberated inside cells by esterases.] After this incubation for 20 minutes, the loading buffer which contains NH4Cl and free BCECF-AM is removed by washing three times in a cell washer (Tecan Columbus) with in each case 400 μl of washing buffer (133.8 mM choline chloride, 4.7 mM KCl, 1.25 mM MgCl2, 1.25 mM CaCl2, 0.97 mM K2HPO4, 0.23 mM KH2PO4, 5 mM HEPES, 5 mM glucose; pH 7.4 [adjusted with KOH]). The residual volume remaining in the wells is 90 μl (50-125 μl possible). This washing step removes the free BCECF-AM and results, as a consequence of the removal of the external NH4^+ ions, in intracellular acidification (˜pHi 6.3-6.4). Since the equilibrium of intracellular NH4^+ with NH3 and H^+ is disturbed by the removal of the extracellular NH4^+ and by the subsequent instantaneous passage of the NH3 through the cell membrane, the washing process results in H^+ remaining inside the cells, which is the cause of the intracellular acidification. This may eventually lead to cell death if it persists long enough. It is important at this point that the washing buffer is sodium-free (<1 mM) because extracellular sodium ions would lead to an instantaneous recovery of the pHi through the activity of the cloned NHE isoforms. It is likewise important for all the buffers used (loading buffer, washing buffer, recovery buffer) not to contain any HCO3^− ions, because the presence of bicarbonate would lead to activation of interfering bicarbonate-dependent pHi regulatory systems present in the parental LAP-1 cell line. The microtiter plates with the acidified cells are then (up to 20 minutes after the acidification) transferred to the FLIPR. In the FLIPR, the intracellular fluorescent dye is excited by light with a wavelength of 488 nm generated by an argon laser, and the measured parameters (laser power, illumination time and aperture of the CCD camera incorporated in the FLIPR) are chosen so that the average fluorescence signal per well is between 30 000 and 35 000 relative fluorescence units. The actual measurement in the FLIPR starts with a photograph being taken by the CCD camera every two seconds under software control. After ten seconds, the recovery of the intracellular pH is initiated by adding 90 μl of recovery buffer (133.8 mM NaCl, 4.7 mM KCl, 1.25 mM MgCl2, 1.25 mM CaCl2, 0.97 mM K2HPO4, 0.23 mM KH2PO4, 10 mM HEPES, 5 mM glucose; pH 7.4 [adjusted with NaOH]) by means of the 96-well pipettor incorporated in the FLIPR. Positive control wells (100% NHE activity) are those to which pure recovery buffer is added, while negative controls (0% NHE activity) receive washing buffer. Recovery buffer with twice the concentration of test substance is added to all the other wells. Measurement in the FLIPR terminates after 60 measurements (two minutes). […]

T1 sequence (P19634 whole entry): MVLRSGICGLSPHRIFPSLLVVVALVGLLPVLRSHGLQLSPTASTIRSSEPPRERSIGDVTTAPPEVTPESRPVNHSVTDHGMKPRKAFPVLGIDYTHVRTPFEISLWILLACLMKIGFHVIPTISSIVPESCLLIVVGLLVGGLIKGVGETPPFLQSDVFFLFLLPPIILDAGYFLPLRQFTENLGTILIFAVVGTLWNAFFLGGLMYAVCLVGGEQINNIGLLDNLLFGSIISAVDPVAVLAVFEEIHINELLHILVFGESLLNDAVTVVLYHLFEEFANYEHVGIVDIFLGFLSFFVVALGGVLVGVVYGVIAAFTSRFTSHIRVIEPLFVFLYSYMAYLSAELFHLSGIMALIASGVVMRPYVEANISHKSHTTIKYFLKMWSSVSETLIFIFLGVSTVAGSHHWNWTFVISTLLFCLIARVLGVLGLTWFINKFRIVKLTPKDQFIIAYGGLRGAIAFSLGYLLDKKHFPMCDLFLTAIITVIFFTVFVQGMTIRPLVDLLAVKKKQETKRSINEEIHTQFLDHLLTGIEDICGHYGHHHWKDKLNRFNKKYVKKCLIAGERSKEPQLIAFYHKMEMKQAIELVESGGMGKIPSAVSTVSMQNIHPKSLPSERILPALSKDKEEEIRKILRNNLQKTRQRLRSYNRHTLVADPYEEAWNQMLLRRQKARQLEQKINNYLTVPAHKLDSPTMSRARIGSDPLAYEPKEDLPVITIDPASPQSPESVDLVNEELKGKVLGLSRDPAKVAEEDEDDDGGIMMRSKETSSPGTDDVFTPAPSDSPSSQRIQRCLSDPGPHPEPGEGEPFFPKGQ

| IC50 | SMILES |
| --- | --- |
| 67.7 nM | Cc1cc2c(cc1C(=O)NC(=N)N)S(=O)(=O)Cc1cccc(C)c1-2 [Example 10, N-(4,6-Dimethyl-9,9-dioxo-9,10-dihydro-9-thiaphenanthrene-7-carbonyl)-guanidinium Formate] |
| 19.5 nM | Cc1ccc2c(c1)CS(=O)(=O)c1cc(C(=O)NC(=N)N)c(C)cc1-2 [Example 11, N-(2,6-Dimethyl-9,9-dioxo-9,10-dihydro-9-thiaphenanthrene-7-carbonyl)-guanidinium Formate] |
| 10.2 nM | COc1ccc2c(c1)CS(=O)(=O)c1cc(C(=O)NC(=N)N)c(C)cc1-2 [Example 8, N-(2-Methoxy-6-methyl-9,9-dioxo-9,10-dihydro-9-thiaphenanthrene-7-carbonyl)guanidinium Formate] |
| 13.9 nM | Cc1cc2c(cc1C(=O)NC(=N)N)S(=O)(=O)Cc1c(Cl)cccc1-2 [Example 9, N-(1-Chloro-6-methyl-9,9-dioxo-9,10-dihydro-9-thiaphenanthrene-7-carbonyl)guanidinium Formate] |

The next lines start with the molecule.

| SMILES | IC50 |
| --- | --- |
| Cc1cc2c(cc1C(=O)NC(=N)N)S(=O)(=O)Cc1c(F)cccc1-2 [Example 6, N-(1-Fluoro-6-methyl-9,9-dioxo-9,10-dihydro-9-thiaphenanthrene-7-carbonyl)guanidinium Formate] | 16.5 nM |
| Cc1cc2c(cc1C(=O)NC(=N)N)S(=O)(=O)Cc1ccccc1-2 [Example 1, N-(6-Methyl-9,9-dioxo-9,10-dihydro-9-thiaphenanthrene-7-carbonyl)guanidinium Formate] | 15.6 nM |
| Cc1cc2c(cc1C(=O)NC(=N)N)S(=O)(=O)Cc1ccc(Cl)cc1-2 [Example 7, N-(3-Chloro-6-methyl-9,9-dioxo-9,10-dihydro-9-thiaphenanthrene-7-carbonyl)guanidinium Formate] | 11.7 nM |
| Cc1cc2c(cc1C(=O)NC(=N)N)S(=O)(=O)Cc1ccc(F)cc1-2 [Example 5, N-(3-Fluoro-6-methyl-9,9-dioxo-9,10-dihydro-9-thiaphenanthrene-7-carbonyl)guanidinium Formate] | 15.6 nM |
| Cc1cc2c(cc1C(=O)NC(=N)N)S(=O)(=O)Cc1cc(Cl)ccc1-2 [Example 4, N-(2-Chloro-6-methyl-9,9-dioxo-9,10-dihydro-9-thiaphenanthrene-7-carbonyl)guanidinium Formate] | 10.8 nM |
| Cc1ccc2c(c1)-c1cc(C)c(C(=O)NC(=N)N)cc1S(=O)(=O)C2 [Example 3, N-(3,6-Dimethyl-9,9-dioxo-9,10-dihydro-9-thiaphenanthrene-7-carbonyl)-guanidinium Formate] | 8.6 nM |
| Cc1cc2c(cc1C(=O)NC(=N)N)S(=O)(=O)Cc1ccc3ccccc3c1-2 [Example 2, N-(2-Methyl-5,5-dioxo-5,6-dihydro-5-thiabenzo[c]phenanthrene-3-carbonyl)guanidinium Formate] | 24.2 nM |
